# Like-named read-outs stand apart in the source and are kept apart here.
# Columns and labels:
# [1] = molecular target: Human cGAS amino acids 155-522 (Homo sapiens (Human), UniProt Q8N884); assay: cGAS biochemical activity assay (ATP remaining, Kinase-Glo Max luminescence); settings: human cGAS 155-522, ATP remaining (Kinase-Glo Max); read-out: cGAS IC50
# [2] = system: cGAS/STING pathway in THP1 cells; assay: THP1 cell-based cGAS/STING pathway activity assay (IRF-3-linked luciferase reporter); settings: Homo sapiens, THP-1
# Method in brief: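 THP1 cells carrying an IRF-3-driven luciferase reporter were read across a range of compound concentrations, and IC50 values were derived from these concentration responses; the assay upper limit was 100 μM.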
# Trex1-KO BMM = assay: Viability of Trex1-KO BMM (Cell Titer Glo 2.0); type: cell-based, mice; settings: Trex1-KO BMM at the cytokine IC50 concentrations
# Method: The inhibition of secreted cytokine was measured in bone marrow-derived macrophages (BMMs) from diseased mice to evaluate the potency of compounds of the invention as described herein. […] To derive bone marrow macrophages, marrow extracted from the femurs and tibias were harvested from Trex1-KO mice was cultured in growth media supplemented with macrophage colony-stimulating factor (M-CSF). Differentiated BMM were harvested and frozen for subsequent experimentation. For treatment with compound C1089 (see Example 13), a frozen stock of Trex1-KO BMM was thawed and 1×10^5 cells were plated in 96 well format. BMMs were treated with a dilution series of C1089 and incubated overnight at 37° C. 5% CO2, at which point cellular supernatants were harvested and stored at −80° C. for subsequent analysis. The media used for this dilution series was without FBS. Remaining cells were evaluated for viability using Cell Titer Glo 2.0 kit according to the manufacturer instructions. BMM supernatants were evaluated for the secreted cytokine […] (RANTES/CCL5) or for secreted cytokine monocyte chemoattractant protein 1 (MCP-1/CCL2) using cytometric bead array mouse Flex Set kits (BD Biosciences). Cytokine concentration was calculated from a standard curve and normalized to vehicle (DMSO) treated cells.
# [3] = system: MCP-1/CCL2 secretion by Trex1-KO BMM; assay: Inhibition of MCP-1/CCL2 secretion by Trex1-KO bone marrow-derived macrophages; type: cell-based, mice; parameters: key to BMM IC50 M (MCP-1): A: an IC50 value less than 5 μM; B: an IC50 value between 5 and 20 μM; where an IC50 value could not be calculated from the data; settings: for IC50: Mus musculus, Macrophage
# Method in brief: (§1)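 Bone marrow macrophages from Trex1-KO mice, differentiated with M-CSF, 1×10^5 cells/well, treated overnight at 37 °C with a compound dilution series in FBS-free medium. Secreted cytokine measured by cytometric bead array from a standard curve, normalized to DMSO; viability by CellTiter-Glo.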
# [4] = system: RANTES/CCL5 secretion by Trex1-KO BMM; assay: Inhibition of RANTES/CCL5 secretion by Trex1-KO bone marrow-derived macrophages; type: cell-based, mice; parameters: key to BMM IC50 R (RANTES): A: an IC50 value less than 5 μM; B: an IC50 value between 5 and 20 μM; where an IC50 value could not be calculated from the data; settings: for IC50: Mus musculus, Macrophage
# Method in brief: as §1
# [5] = Solubility of free base (footnote to Table 15); type: physicochemical; settings: tested as the HCl salt
# [6] = RANTES secretion, read-out: BMM IC50 R (RANTES)
# Sequence of Human cGAS amino acids 155-522 (Q8N884 157-522): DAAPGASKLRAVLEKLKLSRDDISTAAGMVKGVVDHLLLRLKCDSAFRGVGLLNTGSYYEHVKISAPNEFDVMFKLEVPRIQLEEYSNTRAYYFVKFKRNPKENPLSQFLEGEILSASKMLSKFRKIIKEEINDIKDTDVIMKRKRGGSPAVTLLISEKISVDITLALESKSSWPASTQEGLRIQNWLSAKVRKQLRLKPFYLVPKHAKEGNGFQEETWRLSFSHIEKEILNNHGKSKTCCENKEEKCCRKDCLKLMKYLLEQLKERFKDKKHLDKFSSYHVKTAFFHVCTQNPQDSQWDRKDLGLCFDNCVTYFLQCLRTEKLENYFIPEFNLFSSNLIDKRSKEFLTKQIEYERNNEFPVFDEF
SMILES,IC50 [1] [µM],IC50 [2] [µM],solubility of the free base [5],BMM IC50 M (MCP-1) ([3]; MCP-1 secretion),BMM IC50 R (RANTES) ([4]; RANTES secretion),"IC50 [4, 6] [µM]","IC50 ([3]; MCP-1 secretion, read-out: BMM IC50 M (MCP-1)) [µM]",BMM viability (Trex1-KO BMM) [%],"IC50 ([3]; overnight, media without FBS, normalized to DMSO, read-out: MCP-1/CCL2 IC50) [µM]","IC50 ([4]; overnight, media without FBS, normalized to DMSO, read-out: RANTES/CCL5 IC50) [µM]"
"COc1cc(CN)cc2oc(-c3c(C)[nH]c4c(-c5ccccc5)c(C(F)(F)F)nn4c3=O)nc12 [Compound C1128, 6-(6-(aminomethyl)-4-methoxybenzo[d]oxazol-2-yl)-5-methyl-3-phenyl-2-(trifluoromethyl)pyrazolo[1,5-a]pyrimidin-7(4H)-one]",> 250,–,insoluble,–,–,–,–,–,–,–
"Cc1[nH]c2c(-c3ccccc3)c(C(F)(F)F)nn2c(=O)c1C(=O)Nc1nc(C2CC2)cs1 [Compound A1095, N-(4-cyclopropylthiazol-2-yl)-5-methyl-7-oxo-3-phenyl-2-(trifluoromethyl)-4,7-dihydropyrazolo[1,5-a]pyrimidine-6-carboxamide]",< 20,< 20,–,C,C,–,–,–,–,–
"CCOC(=O)C1CC=C(c2[nH]c3c(-c4ccccc4)c(C(F)(F)F)nn3c(=O)c2-c2nc3c(OC)cccc3o2)CC1 (stereo not shown) [Compound C1233, ethyl 4-(6-(4-methoxybenzo[d]oxazol-2-yl)-7-oxo-3-phenyl-2-(trifluoromethyl)-4,7-dihydropyrazolo[1,5-a]pyrimidin-5-yl)cyclohex-3-ene-1-carboxylate]",< 20,< 20,–,C,C,–,–,–,–,–
"COc1ccc(Cl)c2oc(-c3c(C)[nH]c4c(-c5ccccc5)c(C(F)(F)F)nn4c3=O)nc12 [Compound C1094, 6-(7-chloro-4-methoxybenzo[d]oxazol-2-yl)-5-methyl-3-phenyl-2-(trifluoromethyl)pyrazolo[1,5-a]pyrimidin-7(4H)-one]",< 20,< 20,–,C,–,< 5,–,–,–,–
"Cc1[nH]c2c(-c3ccccc3)c(C(F)(F)F)nn2c(=O)c1-c1nnc(C#N)o1 [Compound D1071, 5-(5-methyl-7-oxo-3-phenyl-2-(trifluoromethyl)-4,7-dihydropyrazolo[1,5-a]pyrimidin-6-yl)-1,3,4-oxadiazole-2-carbonitrile]",< 20,< 20,–,–,–,< 5,5 to 20,–,–,–
"COCCOCc1[nH]c2c(-c3ccccc3)c(C(F)(F)F)nn2c(=O)c1-c1nc2c(OC)cccc2o1 [Compound C1151, 6-(4-methoxybenzo[d]oxazol-2-yl)-5-((2-methoxyethoxy)methyl)-3-phenyl-2-(trifluoromethyl)pyrazolo[1,5-a]pyrimidin-7(4H)-one]",< 20,< 20,–,C,–,5 to 20,–,–,–,–
"COc1ccc(C)c2oc(-c3c(C)[nH]c4c(-c5ccccc5)c(C(F)(F)F)nn4c3=O)nc12 [Compound C1092, 6-(4-methoxy-7-methylbenzo[d]oxazol-2-yl)-5-methyl-3-phenyl-2-(trifluoromethyl)pyrazolo[1,5-a]pyrimidin-7(4H)-one]",< 20,> 100,–,C,C,–,–,–,–,–

# The next lines start with results.
IC50 [1] [µM],IC50 [2] [µM],solubility of the free base [5],BMM IC50 M (MCP-1) ([3]; MCP-1 secretion),BMM IC50 R (RANTES) ([4]; RANTES secretion),"IC50 [4, 6] [µM]","IC50 ([3]; MCP-1 secretion, read-out: BMM IC50 M (MCP-1)) [µM]",SMILES,BMM viability (Trex1-KO BMM) [%],"IC50 ([3]; overnight, media without FBS, normalized to DMSO, read-out: MCP-1/CCL2 IC50) [µM]","IC50 ([4]; overnight, media without FBS, normalized to DMSO, read-out: RANTES/CCL5 IC50) [µM]"
< 20,< 20,–,–,–,–,–,"COc1cccc2oc(-c3c(C#N)[nH]c4c(-c5ccccc5)c(C(F)(F)F)nn4c3=O)nc12 [Compound C1089, 6-(4-methoxybenzo[d]oxazol-2-yl)-7-oxo-3-phenyl-2-(trifluoromethyl)-4,7-dihydropyrazolo[1,5-a]pyrimidine-5-carbonitrile]",100,6.97,1.25
< 20,< 20,–,C,C,–,–,"COc1c(Br)ccc2oc(-c3c(C)[nH]c4c(-c5ccccc5)c(C(F)(F)F)nn4c3=O)nc12 [Compound C1082, 6-(5-bromo-4-methoxybenzo[d]oxazol-2-yl)-5-methyl-3-phenyl-2-(trifluoromethyl)pyrazolo[1,5-a]pyrimidin-7(4H)-one]",–,–,–
< 20,20 to 100,–,C,C,–,–,"Cc1[nH]c2c(-c3ccccc3)c(C(F)(F)F)nn2c(=O)c1-c1nc2c(O)cccc2o1 [Compound C1053, 6-(4-hydroxybenzo[d]oxazol-2-yl)-5-methyl-3-phenyl-2-(trifluoromethyl)pyrazolo[1,5-a]pyrimidin-7(4H)-one]",–,–,–
< 20,20 to 100,–,C,C,–,–,"COc1cc(N)cc2oc(-c3c(C)[nH]c4c(-c5ccccc5)c(C(F)(F)F)nn4c3=O)nc12 [Compound C1123, 6-(6-amino-4-methoxybenzo[d]oxazol-2-yl)-5-methyl-3-phenyl-2-(trifluoromethyl)pyrazolo[1,5-a]pyrimidin-7(4H)-one]",–,–,–
